Measurements taken from patent US11883387B2, “PqsR inverse agonists” (HELMHOLTZ-ZENTRUM FÜR INFEKTIONSFORSCHUNG GMBH, priority 2018, dated 2024).

Target: PqsR (Pseudomonas aeruginosa, UniProt Q9I4X0)
Assay: E. coli based β-galactosidase reporter gene assay (PqsR inverse agonistic activity)
Type: cell-based
Design: expressed in transfected cells; host or cells: Escherichia coli DH5α
Description: Inhibition of pqsR-dependent gene expression of test compounds was determined in an E. coli based β-galactosidase reporter gene assay.[19] Escherichia coli DH5α was transfected with pEAL08-2 plasmid encoding pqsR under control of promoter tac and β-galactosidase reporter gene lacZ under control of promoter pqsA. Antagonistic effects of compounds were evaluated in the presence of/in competition to 50 nM PQS. A positive control was used to ensure the reliability of individual assays. First, PQS was diluted in methanol and added to the wells of a glass coated 96-deep-well plate, and the solvent was evaporated. Then, compounds were added in 5 μL DMSO to final concentrations of 0.001-10 μM. Overnight cultures of E. coli DH5a×pEAL08-2 were diluted 1:100 in LB medium with ampicillin (50 μg/ml) and incubated at 37° C. with shaking until it reached an OD600 of 0.2. Finally, 995 μL of culture was added to each well and the p-galactosidase activity was determined by ortho-nitrophenyl-p-galactoside conversion in permeabilized cells after a 2.5 h incubation period (37° C., 180 rpm). OD600, OD420, and OD550 were measured using POLARstar Omega (BMG Labtech, Ortenberg, Germany), and the activity was expressed as ratio of the slope of β-galactosidase activity between basal control (no PQS) and solvent control. IC50 values of antagonists were determined by variation of the concentration of the test compounds.

Chain of PqsR (Q9I4X0 whole entry): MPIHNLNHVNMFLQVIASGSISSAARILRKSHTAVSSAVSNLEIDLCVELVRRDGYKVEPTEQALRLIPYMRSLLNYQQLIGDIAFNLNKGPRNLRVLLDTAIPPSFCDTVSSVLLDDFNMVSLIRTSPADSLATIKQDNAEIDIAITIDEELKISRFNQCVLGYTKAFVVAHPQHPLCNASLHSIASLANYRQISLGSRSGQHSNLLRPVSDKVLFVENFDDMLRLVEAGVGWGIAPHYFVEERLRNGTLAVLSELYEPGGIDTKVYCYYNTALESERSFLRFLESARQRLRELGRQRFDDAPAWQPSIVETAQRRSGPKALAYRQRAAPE

| SMILES | IC50 |
| --- | --- |
| FC(F)(F)c1cc(SCc2nnc(-c3ccc(Cl)cc3)o2)ccn1 [Compound 136, 2-(4-Chlorophenyl)-5-(((2-(trifluoromethyl)pyridin-4-yl)thio)methyl)-1,3,4-oxadiazole] | 251 to 1000 nM |
| FC(F)(F)c1cc(NCc2cn(-c3ccc(CN4CCOCC4)cc3)nn2)ccn1 [Compound 019, N-((1-(4-(Morpholinomethyl)phenyl)-1H-1,2,3-triazol-4-yl)methyl)-2-(trifluoromethyl)pyridin-4-amine] | 251 to 1000 nM |
| COc1c(C)cc(-c2ncc(CNc3ccnc(C(F)(F)F)c3)s2)cc1C [Compound 075, N-((2-(4-Methoxy-3,5-dimethylphenyl)thiazol-5-yl)methyl)-2-(trifluoromethyl)pyridin-4-amine] | 251 to 1000 nM |
| Fc1cc(Br)ccc1-n1cc(CNc2ccnc(C(F)(F)F)c2)nn1 [Compound 024, N-((1-(4-Bromo-2-fluorophenyl)-1H-1,2,3-triazol-4-yl)methyl)-2-(trifluoromethyl)pyridin-4-amine] | 51 to 250 nM |
| FC(F)(F)c1cc(NCc2cn(-c3cccc(CN4CCOCC4)c3)nn2)ccn1 [Compound 002, N-((1-(3-(Morpholinomethyl)phenyl)-1H-1,2,3-triazol-4-yl)methyl)-2-(trifluoromethyl)pyridin-4-amine] | 251 to 1000 nM |
| FC(F)(F)c1ccc(-n2cc(CNc3ccnc(C(F)(F)F)c3)nn2)cc1 [Compound 014, 2-(Trifluoromethyl)-N-((1-(4-(trifluoromethyl)phenyl)-1H-1,2,3-triazol-4-yl)methyl)pyridin-4-amine] | 51 to 250 nM |
| FC(F)(F)c1cc(NCc2cn(-c3ccc(Oc4ccccn4)c(Cl)c3)nn2)ccn1 [Compound 034, N-((1-(3-Chloro-4-(pyridin-2-yloxy)phenyl)-1H-1,2,3-triazol-4-yl)methyl)-2-(trifluoromethyl)pyridin-4-amine] | ≤ 50 nM |
| Fc1ccc(-n2cc(CNc3ccnc(C(F)(F)F)c3)nn2)cc1 [Compound 010, N-((1-(4-Fluorophenyl)-1H-1,2,3-triazol-4-yl)methyl)-2-(trifluoromethyl)pyridin-4-amine] | 51 to 250 nM |
| Fc1ccc(-n2cc(CNc3ccnc(C(F)(F)F)c3)nn2)cc1Cl [Compound 027, N-((1-(3-Chloro-4-fluorophenyl)-1H-1,2,3-triazol-4-yl)methyl)-2-(trifluoromethyl)pyridin-4-amine] | 251 to 1000 nM |
| Fc1cc(-n2cc(CSc3ccnc(C(F)(F)F)c3)nn2)ccc1OC(F)(F)F [Compound 064, 4-(((1-(3-fluoro-4-(trifluoromethoxy)phenyl)-1H-1,2,3-triazol-4-yl)methyl)thio)-2-(trifluoromethyl)pyridine] | 51 to 250 nM |
| N#Cc1ccc(-n2cc(CNc3ccnc(C(F)(F)F)c3)nn2)cc1 [Compound 013, 4-(4-(((2-(trifluoromethyl)pyridin-4-yl)amino)methyl)-1H-1,2,3-triazol-1-yl)benzonitrile] | 251 to 1000 nM |
| O=C(c1cccc(-c2nc(CNc3ccnc(C(F)(F)F)c3)cs2)c1)C1CC1 [Compound 090, Cyclopropyl(3-(4-(((2-(trifluoromethyl)pyridin-4-yl)amino)methyl)thiazol-2-yl)phenyl)methanone] | 251 to 1000 nM |
| FC(F)(F)Oc1cccc(-n2cc(CNc3ccnc(C(F)(F)F)c3)nn2)c1 [Compound 011, N-((1-(3-(Trifluoromethoxy)phenyl)-1H-1,2,3-triazol-4-yl)methyl)-2-(trifluoromethyl)pyridin-4-amine] | 51 to 250 nM |
| COc1cc(-n2cc(CNc3ccnc(C(F)(F)F)c3)nn2)ccc1Br [Compound 023, N-((1-(4-Bromo-3-methoxyphenyl)-1H-1,2,3-triazol-4-yl)methyl)-2-(trifluoromethyl)pyridin-4-amine] | 251 to 1000 nM |
| CSc1cccc(-n2cc(CNc3ccnc(C(F)(F)F)c3)nn2)c1 [Compound 015, N-((1-(3-(Methylthio)phenyl)-1H-1,2,3-triazol-4-yl)methyl)-2-(trifluoromethyl)pyridin-4-amine] | 51 to 250 nM |
| FC(F)(F)c1cc(NCc2cn(-c3ccc(-n4ncc5ncccc54)cc3)nn2)ccn1 [Compound 149, N-((1-(4-(1H-pyrazolo[4,3-b]pyridin-1-yl)phenyl)-1H-1,2,3-triazol-4-yl)methyl)-2-(trifluoromethyl)pyridin-4-amine] | ≤ 50 nM |
| Fc1cccc(Oc2ccc3[nH]c(CSc4ccnc(C(F)(F)F)c4)nc3c2)c1 [Compound 130, 5-(3-Fluorophenoxy)-2-(((2-(trifluoromethyl)pyridin-4-yl)thio)methyl)-1H-benzo[d]imidazole] | ≤ 50 nM |
| FC(F)(F)c1cc(SCc2ccc(-c3ccc(Cl)nc3)cc2)ccn1 [Compound 110, 4-((4-(6-Chloropyridin-3-yl)benzyl)thio)-2-(trifluoromethyl)pyridine] | 251 to 1000 nM |

| SMILES | IC50 |
| --- | --- |
| FC(F)(F)c1cc(SCc2ccc(-c3cnc(Cl)nc3)cn2)ccn1 [Compound 113, 2-Chloro-5-(6-(((2-(trifluoromethyl)pyridin-4-yl)thio)methyl)pyridin-3-yl)pyrimidine] | 251 to 1000 nM |
| FC(F)(F)c1cc(OCc2nc3ccc(Oc4ccccc4)cc3o2)ccn1 [Compound 133, 6-Phenoxy-2-(((2-(trifluoromethyl)pyridin-4-yl)oxy)methyl)benzo[d]oxazole] | 251 to 1000 nM |
| COc1ncc(-c2ccc(CSc3ccnc(C(F)(F)F)c3)nc2)cc1Cl [Compound 115, 5-Chloro-6-methoxy-6′-(((2-(trifluoromethyl)pyridin-4-yl)thio)methyl)-3,3′-bipyridine] | 251 to 1000 nM |
| COc1cc(SCc2nc3cc(Oc4ccccc4)ccc3[nH]2)nc(C(F)(F)F)n1 [Compound 126, 2-(((6-Methoxy-2-(trifluoromethyl)pyrimidin-4-yl)thio)methyl)-5-phenoxy-1H-benzo[d]imidazole] | 251 to 1000 nM |
| FC(F)(F)c1cc(SCc2cnc(-c3ccc(Cl)cc3)s2)ccn1 [Compound 067, 2-(4-Chlorophenyl)-5-(((2-(trifluoromethyl)pyridin-4-yl)thio)methyl) thiazole] | 251 to 1000 nM |
| FC(F)(F)c1cc(SCc2nnn(-c3ccc(Cl)cc3)n2)ccn1 [Compound 138, 4-(((2-(4-Chlorophenyl)-2H-tetrazol-5-yl)methyl)thio)-2-(trifluoromethyl)pyridine] | 251 to 1000 nM |
| FC(F)(F)c1cc(SCc2ccn(-c3ccc(Cl)cc3)n2)ccn1 [Compound 135, 4-(((1-(4-chlorophenyl)-1H-pyrazol-3-yl)methyl)thio)-2-(trifluoromethyl)-pyridine] | 251 to 1000 nM |
| FC(F)(F)c1cc(NCc2cn(-c3ccc(Cl)cc3)nn2)ccn1 [Compound 008, N-((1-(4-chlorophenyl)-1H-1,2,3-triazol-4-yl)methyl)-2-(trifluoromethyl)pyridin-4-amine] | 51 to 250 nM |
| CN(c1ccccc1)c1ccc(-n2cc(CNc3ccnc(C(F)(F)F)c3)nn2)cc1 [Compound 029, N-((1-(4-(Methyl(phenyl)amino)phenyl)-1H-1,2,3-triazol-4-yl)methyl)-2-(trifluoromethyl)pyridin-4-amine] | 51 to 250 nM |
| FC(F)(F)c1cc(NCc2ncc(-c3ccc(Cl)nc3)cn2)ccn1 [Compound 099, N-((5-(6-Chloropyridin-3-yl)pyrimidin-2-yl)methyl)-2-(trifluoromethyl)pyridin-4-amine] | 251 to 1000 nM |
| FC(F)(F)c1nc(Cl)cc(SCc2nc3cc(Oc4ccccc4)ccc3[nH]2)n1 [Compound 124, 2-(((6-Chloro-2-(trifluoromethyl)pyrimidin-4-yl)thio)methyl)-5-phenoxy-1H-benzo[d]imidazole] | 251 to 1000 nM |
| FC(F)(F)c1nccc(SCc2cn(-c3ccc(Cl)cc3)nn2)n1 [Compound 060, 4-(((1-(4-chlorophenyl)-1H-1,2,3-triazol-4-yl)methyl)thio)-2-(trifluoromethyl)pyrimidine] | 251 to 1000 nM |
| FC(F)(F)c1cc(NCc2cn(-c3cccc(Cl)c3)nn2)ccn1 [Compound 003, N-((1-(3-Chlorophenyl)-1H-1,2,3-triazol-4-yl)methyl)-2-(trifluoromethyl)pyridin-4-amine] | 51 to 250 nM |
| N#Cc1ccc(-c2nc(CNc3ccnc(C(F)(F)F)c3)cs2)cc1 [Compound 085, 4-(4-(((2-(Trifluoromethyl)pyridin-4-yl)amino)methyl)thiazol-2-yl)benzonitrile] | 251 to 1000 nM |
| COc1ccc(-c2nc(CNc3ccnc(C(F)(F)F)c3)cs2)cc1 [Compound 086, N-((2-(4-Methoxyphenyl)thiazol-4-yl)methyl)-2-(trifluoromethyl)pyridin-4-amine] | 251 to 1000 nM |
| FC(F)(F)c1cc(SCc2cn(-c3ccc(Cl)cc3)nn2)ccn1 [Compound 055, 4-(((1-(4-chlorophenyl)-1H-1,2,3-triazol-4-yl)methyl)thio)-2-(trifluoromethyl)pyridine] | 251 to 1000 nM |
| FC(F)(F)c1cc(SCc2nc3cc(Cl)ccc3[nH]2)ccn1 [Compound 123, 5-Chloro-2-(((2-(trifluoromethyl)pyridin-4-yl)thio)methyl)-1H-benzo[d]imidazole] | 251 to 1000 nM |
| Fc1ccc(-n2cc(CNc3ccnc(C(F)(F)F)c3)nn2)cc1F [Compound 020, N-((1-(3,4-Difluorophenyl)-1H-1,2,3-triazol-4-yl)methyl)-2-(trifluoromethyl)pyridin-4-amine] | 51 to 250 nM |
